According to patent US12378211B2, “Carbonic anhydrase inhibitors and antibiotics against multidrug resistant bacteria” (Purdue Research Foundation, priority 2018, dated 2025):
Converted amounts (≈) assume the structure as drawn. Where two headings read alike, the source gives them in different places.

Experiments:
[1] = tested on: Mutant-7 of Enterococcus fecalis NR 31975; assay: microbe, parasite or virus in culture; type: cell-based; details: Enterococcus
[2] = tested on: Mutant-6 of Enterococcus fecalis NR 31975; assay: microbe, parasite or virus in culture; type: cell-based; details: Enterococcus
[3] = tested on: MRSA NRS 384 (MRSA USA300); assay: MIC against Staphylococci, broth microdilution; type: cell-based, Staphylococcus aureus; details: Staphylococcus aureus; TSB; read-out: MIC
Experimental: (§1) The minimum inhibitory concentrations (MICs) of the compounds and control drugs were determined using the broth microdilution method, according to guidelines outlined by the Clinical and Laboratory Standards Institute (CLSI) 1. Staphylococci strains were grown aerobically overnight on tryptone soya agar plates at 37° C., afterwards a bacterial solution equivalent to 0.5 McFarland standard was prepared and diluted in tryptone soy broth (TSB) to achieve a bacterial concentration of about 5×10^5 CFU/mL and seeded in 96-well well plates. Compounds and control drugs were added in the first row of the 96-well plates and serially diluted along the plates. Plates were then incubated aerobically at 37° C. for 18-20 hours. MICs reported in Table 2 are the minimum concentration of the compounds/control drugs that could inhibit completely the visual growth of the bacteria.

[4] = tested on: Mutant-2 of Enterococcus fecalis NR 31975; assay: microbe, parasite or virus in culture; type: cell-based; details: Enterococcus
[5] = tested on: Mutant-15 of Enterococcus fecalis NR 31975; assay: microbe, parasite or virus in culture; type: cell-based; details: Enterococcus
[6] = tested on: Mutant-4 of Enterococcus fecalis NR 31975; assay: microbe, parasite or virus in culture; type: cell-based; details: Enterococcus
[7] = tested on: Mutant-3 of Enterococcus fecalis NR 31975; assay: microbe, parasite or virus in culture; type: cell-based; details: Enterococcus
[8] = tested on: Mutant-5 of Enterococcus fecalis NR 31975; assay: microbe, parasite or virus in culture; type: cell-based; details: Enterococcus
[9] = tested on: Mutant-13 of Enterococcus fecalis NR 31975; assay: microbe, parasite or virus in culture; type: cell-based; details: Enterococcus
[10] = tested on: Lactobacillus gasseri EX336960VC03 HIM-400; assay: MIC against human normal gut microbiota; type: cell-based; details: Lactobacillus gasseri; MRS broth, 5% CO2, 48 hours; read-out: MIC
Experimental: (§2) Three different bacterial strains were used in this experiment; Bifidobacterium (anaerobic Gram positive bacteria), Bacteroides (anaerobic Gram negative bacteria) and Lactobacillus (microaerophilic Gram positive bacteria). Bifidobacterium and Bacteroides were first grown for 48 hours at 37° C., anaerobically using brain heart infusion supplemented (BHIS) agar (Brain heart infusion agar supplemented with hemin, vitamin K and L-cysteine). Lactobacillus was cultivated on MRS agar and incubated in presence of 5% CO2 for 48 hours at 37° C. Each bacterium was suspended in phosphate buffered saline (PBS) to produce a suspension with optical density that matches 0.5 McFarland standard and diluted in brain heart infusion supplemented broth (for Bifidobacterium and Bacteroides) or in MRS broth (for Lactobacillus) to achieve bacterial concentration of approximately 5×10^5 CFU/ml. Bacteria were then seeded in 96-well plates containing serial dilutions of the compounds and incubated as mentioned previously for 48 hours.

[11] = tested on: Bifidobacterium breve—JCP7499 HIM 1120; assay: MIC against human normal gut microbiota; type: cell-based; details: Bifidobacterium; BHIS broth, anaerobic, 48 hours; read-out: MIC
Experimental: as §2

[12] = tested on: Bacteroides dorei—CL02T12C06 HM-719; assay: MIC against human normal gut microbiota; type: cell-based; details: Bacteroides; BHIS broth, anaerobic, 48 hours; read-out: MIC
Experimental: as §2

[13] = tested on: Bifidobacterium longum subsp. Longum—44B HM 845; assay: MIC against human normal gut microbiota; type: cell-based; details: Bifidobacterium longum; BHIS broth, anaerobic, 48 hours; read-out: MIC
Experimental: as §2

[14] = tested on: Bacteroides fragilis—CL07T00C01 HIM-709; assay: MIC against human normal gut microbiota; type: cell-based; details: Bacteroides; BHIS broth, anaerobic, 48 hours; read-out: MIC
Experimental: as §2

[15] = tested on: Lactobacillus casei ATCC 334; assay: MIC against human normal gut microbiota; type: cell-based; details: Lacticaseibacillus casei, ATCC334; MRS broth, 5% CO2, 48 hours; read-out: MIC
Experimental: as §2

[16] = tested on: Mutant-14 of Enterococcus fecalis NR 31975; assay: microbe, parasite or virus in culture; type: cell-based; details: Enterococcus
[17] = tested on: Enterococcus fecalis Strain SF24413 NR31971; assay: MIC, broth microdilution in TSB; type: cell-based; details: Enterococcus, TSB
Procedure, shortened: (§3)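 Strains were grown aerobically overnight on tryptone soya agar at 37° C, adjusted to 0.5 McFarland and diluted to about 5×10^5 CFU/mL. Compounds were serially diluted across the wells, and plates were incubated aerobically at 37° C for 18-20 hours.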

[18] = tested on: Enterococcus faecium E417-HM-965; assay: MIC, broth microdilution in TSB; type: cell-based; details: Enterococcus faecium, E417HM965, TSB
Procedure, shortened: as §3

[19] = tested on: Enterococcus faecium Patient #3-1 NR-31912; assay: MIC, broth microdilution in TSB; type: cell-based; details: Enterococcus faecium, TSB
Procedure, shortened: as §3

[20] = tested on: Enterococcus fecalis Strain MMH594-NR31975; assay: MIC, broth microdilution in TSB; type: cell-based; details: Enterococcus, TSB
Procedure, shortened: as §3

[21] = tested on: Enterococcus fecalis Strain SF 28073-NR31972; assay: MIC, broth microdilution in TSB; type: cell-based; details: Enterococcus, TSB
Procedure, shortened: as §3

[22] = tested on: Enterococcus fecalis Strain SF 24397 NR31970; assay: MIC, broth microdilution in TSB; type: cell-based; details: Enterococcus, TSB
Procedure, shortened: as §3

[23] = tested on: Enterococcus faecium Patient #2-1-NR-31909; assay: MIC, broth microdilution in TSB; type: cell-based; details: Enterococcus faecium, TSB
Procedure, shortened: as §3

[24] = tested on: Enterococcus faecalis—S613 HM-334; assay: MIC, broth microdilution in TSB; type: cell-based; details: Enterococcus, TSB
Procedure, shortened: as §3

[25] = tested on: Staphylococcus epidermidis NRS 101; assay: MIC against Staphylococci, broth microdilution; type: cell-based; details: Staphylococcus epidermidis, NRS101; TSB; read-out: MIC
Experimental: as §1

SMILES	MIC [1] [µg/mL]	MIC [2] [µg/mL]	MIC [3] [µg/mL]	MIC [10] [µg/mL]	MIC [11] [µg/mL]	MIC [12] [µg/mL]	MIC [13] [µg/mL]	MIC [14] [µg/mL]	MIC [15] [µg/mL]	MIC ([17]; Table 1, read-out: MIC) [µg/mL]	MIC ([17]; Table 7, read-out: MIC in TSB) [µg/mL]	MIC ([20]; Table 1, read-out: MIC) [µg/mL]	MIC ([20]; Table 7, read-out: MIC in TSB) [µg/mL]	MIC ([21]; Table 1, read-out: MIC) [µg/mL]	MIC ([21]; Table 7, read-out: MIC in TSB) [µg/mL]	MIC ([22]; Table 1, read-out: MIC) [µg/mL]	MIC ([22]; Table 7, read-out: MIC in TSB) [µg/mL]	MIC ([24]; Table 1, read-out: MIC) [µg/mL]	MIC ([24]; Table 7, read-out: MIC in TSB) [µg/mL]	MIC [25] [µg/mL]	also measured
CC(C)(C)C(=O)Nc1nnc(S(N)(=O)=O)s1 [CAI0010, N-(5-Sulfamoyl-1,3,4-thiadiazol-2-yl) pivalamide]	4 (≈ 15.1 µM)	16 (≈ 60.5 µM)	> 64	> 64	> 64	> 64	> 64	> 64	> 64	0.5 (≈ 1.89 µM)	0.25 (≈ 0.946 µM)	1 (≈ 3.78 µM)	0.25 (≈ 0.946 µM)	0.5 (≈ 1.89 µM)	0.5 (≈ 1.89 µM)	0.5 (≈ 1.89 µM)	0.25 (≈ 0.946 µM)	0.5 (≈ 1.89 µM)	0.125 (≈ 0.473 µM)	> 64	MIC [4]: 8 µg/mL (≈ 30.3 µM); MIC [5]: 4 µg/mL (≈ 15.1 µM); MIC [6]: 8 µg/mL (≈ 30.3 µM); MIC [7]: 4 µg/mL (≈ 15.1 µM); MIC [8]: 4 µg/mL (≈ 15.1 µM); MIC [9]: 4 µg/mL (≈ 15.1 µM); MIC [16]: 4 µg/mL (≈ 15.1 µM); MIC ([18]; Table 1, read-out: MIC): 0.5 µg/mL (≈ 1.89 µM); MIC ([18]; Table 7, read-out: MIC in TSB): 0.25 µg/mL (≈ 0.946 µM); MIC ([19]; Table 1, read-out: MIC): 1 µg/mL (≈ 3.78 µM); MIC ([19]; Table 7, read-out: MIC in TSB): 0.25 µg/mL (≈ 0.946 µM); MIC ([23]; Table 1, read-out: MIC): 0.5 µg/mL (≈ 1.89 µM); MIC ([23]; Table 7, read-out: MIC in TSB): 0.125 µg/mL (≈ 0.473 µM)
CC(=O)NC[C@H]1CN(c2ccc(N3CCOCC3)c(F)c2)C(=O)O1 [Linezolid, reference compound]	2 (≈ 5.93 µM)	4 (≈ 11.9 µM)	2 (≈ 5.93 µM)	2 (≈ 5.93 µM)	≤ 0.5	1 (≈ 2.96 µM)	≤ 0.5	2 (≈ 5.93 µM)	1 (≈ 2.96 µM)	1 (≈ 2.96 µM)	1 (≈ 2.96 µM)	1 (≈ 2.96 µM)	1 (≈ 2.96 µM)	1 (≈ 2.96 µM)	1 (≈ 2.96 µM)	1 (≈ 2.96 µM)	1 (≈ 2.96 µM)	1 (≈ 2.96 µM)	1 (≈ 2.96 µM)	≤ 0.5	MIC [4]: 4 µg/mL (≈ 11.9 µM); MIC [5]: 8 µg/mL (≈ 23.7 µM); MIC [6]: 4 µg/mL (≈ 11.9 µM); MIC [7]: 4 µg/mL (≈ 11.9 µM); MIC [8]: 4 µg/mL (≈ 11.9 µM); MIC [9]: 4 µg/mL (≈ 11.9 µM); MIC [16]: 4 µg/mL (≈ 11.9 µM)
CC(C)C(=O)Nc1nnc(S(N)(=O)=O)s1 [CAI0011, N-(5-Sulfamoyl-1,3,4-thiadiazol-2-yl) isobutyramide]			> 64	> 64	> 64	> 64	> 64	> 64	> 64	2 (≈ 7.99 µM)	2 (≈ 7.99 µM)	2 (≈ 7.99 µM)	2 (≈ 7.99 µM)	2 (≈ 7.99 µM)	2 (≈ 7.99 µM)	2 (≈ 7.99 µM)	2 (≈ 7.99 µM)	2 (≈ 7.99 µM)	2 (≈ 7.99 µM)	> 64	MIC ([18]; Table 1, read-out: MIC): 1 µg/mL (≈ 4 µM); MIC ([18]; Table 7, read-out: MIC in TSB): 1 µg/mL (≈ 4 µM); MIC ([19]; Table 1, read-out: MIC): 1 µg/mL (≈ 4 µM); MIC ([19]; Table 7, read-out: MIC in TSB): 1 µg/mL (≈ 4 µM); MIC ([23]; Table 1, read-out: MIC): 1 µg/mL (≈ 4 µM); MIC ([23]; Table 7, read-out: MIC in TSB): 1 µg/mL (≈ 4 µM)
